Experimental data taken from patent publication US20140303260A1, “PHARMACEUTICAL COMPOSITIONS OF RESVERATROL” (NAD Life Pty Ltd, priority 2011, published 2014).

Experiments:
[1] = cited from earlier work
blood NAD levels = assay: NAD levels in a test group of subjects after administration of resveratrol, buccal/sublingual composition versus oral; type: in vivo, human
Method: A 35% increased blood NAD level was sustained at 4 hrs compared to baseline. […] The comparison of the effect on NAD levels between oral administration of resveratrol and buccal/sublingual membrane administration of resveratrol is best shown in FIG. 3. This graph depicts the difference in the change in a subject's NAD levels (in ng/mL) when resveratrol is administered orally (absorption through the gastrointestinal tract) compared to when resveratrol is administrated by the pharmaceutical composition of the present invention (absorption through the buccal/sublingual membranes).

## Oc1ccc(C=Cc2cc(O)cc(O)c2)cc1 [resveratrol]
[1]
  solubility in aqueous solutions: almost insoluble
Blood NAD levels; absorption through buccal/sublingual membranes (FIG. 1), at 1 hr (60 min)
  increase in blood NAD levels: 41%
Blood NAD levels; absorption through buccal/sublingual membranes, at 4 hrs
  increased blood NAD level sustained compared to baseline: 35%
Blood NAD levels; delivered via powdered slurry (gastrointestinal absorption alone)
  change in blood NAD levels: No observable change
Blood NAD levels; oral, absorbed through the gastrointestinal tract (FIG. 2), in only some of the people in the group
  level of NAD after oral administration: only a mild increase
